Laboratory results as given in the pKa sets of Baltruschat and Czodrowski (2020).

Settings: acidic group

In order of rising pKa:
1. Oc1cccc[nH+]1  0.75
2. [NH3+]C(CC(=O)O)c1cccc[nH+]1 (configuration not stated)  1.3
3. Nc1nc2c(ncn2[C@H]2O[C@@H](CO)[C@H](O)[C@@H]2O)c(O)[nH+]1  1.9
4. CC/C=C/Cc1[nH+]ccn1[C@H](C(=O)O)C(C)(C)S  2
5. CC(C)S(=O)O  2.3
6. N#CC(C(=O)O)C1CCCCC1 (configuration not stated)  2.37
7. O=[PH](O)C([NH2+]Cc1cccc[nH+]1)c1ccccc1O (configuration not stated)  2.4
8. Cc1cc(C(O)=C(C#N)C#N)cc(C)c1O  2.55
9. CCCCCCCC(=O)N[C@H]1C(=O)N2[C@H]1SC(C)(C)[C@H]2C(=O)O  2.66
10. NC(=[NH2+])NOCC(=O)O  2.69
11. CC1(C)S[C@H]2[C@@H](NC(=O)Cc3ccccc3)C(=O)N2[C@@H]1C(=O)O  2.76
12. CC(C)(Cl)C(=O)O  2.97
13. O=P1(O)CCC1  3.07
14. CC(C)NC(=S)S  3.1
15. NC1=[NH+][C@@H](CC(=O)O)C(=O)N1CCCC([NH3+])C(=O)[O-] (some centres not stated)  3.26
16. Cc1cc(C(C)(C)C)cc(C)c1C(=O)O  3.44
17. O=C(O)c1ccccc1F  3.6
18. Cc1ccc(I)cc1C(=O)O  3.62
19. C/C(=C\C=C\C(C)C(=O)O)[C@H]1C[NH2+][C@H](C(=O)[O-])[C@H]1CC(=O)O (some centres not stated)  3.72
20. O=C(O)c1cccccc1=O  3.73
21. Brc1cccc(-c2nnn[nH]2)c1  3.82
22. CC(=O)c1cccc(C(=O)O)c1  3.84
23. On1nnc2c(Cl)cccc21  3.9
24. C[N+]1(CCCC(=O)O)CCCCC1  4.11
25. CC1CCC[C@H](C(C)C(=O)O)C1 (some centres not stated)  4.59
26. O=C(O)CCc1c[nH]c2ccccc12  4.87
27. O=C(O)CCc1nnnn1-c1ccccc1  5
28. CCCCCCCCCCCCCCCCCC(=O)O  5.01
29. CCCCCCCCCCCCCCC(=O)O  5.01
30. N#CC(C#N)=NNc1ccccc1Cl  5.84
31. O=c1ccccc(Br)c1O  5.96
32. Nc1nnn[nH]1  5.98
33. O=CC1c2ccccc2C(=O)c2ccccc21  6
34. N#CC(C#N)C(c1ccccc1)C(C#N)C#N  6.19
35. O=c1oc2c(O)c(O)cc3c(=O)oc4c(O)c(O)cc1c4c23  6.59
36. COc1ccc(S)cc1  6.76
37. Cc1csc(NS(=O)(=O)c2ccc(N)cc2)n1  7.12
38. C[C@@H](C(=O)c1ccc(O)cc1)[NH+](C)Cc1ccccc1  7.5
39. Cc1cc(O)ccc1[N+](=O)[O-]  7.65
40. O=C(NO)c1cccc2ccccc12  7.7
41. CC(C)C[C@H](N)C(N)=O  7.84
42. CC(=O)c1ccc(O)cc1  7.9
43. NC(=O)C(N)CC(=O)O (configuration not stated)  7.95
44. O=c1[nH]cc(SSc2c[nH]c(=O)[nH]c2=O)c(=O)[nH]1  8
45. O=C(c1ccccc1)c1ccc(O)cc1  8.01
46. CCN(CC)C(=S)NC(=O)c1cccc(F)c1  8.21
47. COc1cc(S(C)=O)ccc1-c1nc2ccnnc2[nH]1 (configuration not stated)  8.7
48. C[NH+](C)CCCCNC(=O)/C=N/O  8.81
49. Oc1ccc2cccc(Br)c2c1  8.94
50. Nc1cncnc1N  9.33
51. C/C(O)=C/C(N)=O  9.46
52. Oc1ccc(Cl)cc1CN1CCOCC1  9.85
53. O/N=C/c1ccccn1  10.1
54. CCOc1ccc(O)cc1  10.2
55. CCCCCOc1ccc(O)cc1  10.2
56. CC(=O)CC(=O)Nc1ccc(C)cc1  10.2
57. c1ccc(-c2nc3cnccc3[nH]2)cc1  10.3
58. Fc1ccc(NC(=S)c2cccc(Br)c2)cc1  10.3
59. O/N=C/c1cccnc1  10.3
60. Nc1ccc(O)c(N)c1  10.4
61. COc1cc(CN)ccc1O  10.5
62. Cc1cc(C(C)C)ccc1O  10.6
63. Cc1cccc(C(C)C)c1O  10.8
64. c1cc2[nH]cnc2cn1  10.9
65. CN(C)c1ncnc2[nH]ncc12  11
66. CCC(C(C)=O)C(C)=O  11.3
67. Cc1nn(-c2ccccc2)c(O)c1Cc1ccccc1  11.8
68. O=C1O[C@@H]([C@H](O)[C@@H](O)[C@@H](O)CO)C([O-])=C1O  12
69. CC(=O)c1ccc(F)cc1  18.5

Same assay, conditions: basic group

In order of falling pKa:
1. C/N=C(/NC)N(C)C  13.9
2. CN=C(N(C)C)N(C)C  13.8
3. O=C([O-])[C@H](NCCN[C@@H](C(=O)[O-])c1ccccc1[O-])c1ccccc1[O-]  12.1
4. C1CCN2C[C@@H]3C[C@@H](CN4CCCC[C@@H]34)[C@H]2C1  11.3
5. CC(C)NCCc1ccc([O-])cc1  10.8
6. N[C@H](c1ccccc1)[C@H](O)c1ccccc1  10.5
7. CCCCN/C(C)=N/N(C)C  10.4
8. NCCCCCC[NH3+]  10.2
9. C/N=c1/scc(C)n1C  9.97
10. CN(C)C[C@H]1[C@@H]2CC[C@@](C)([C@H]1N)C2(C)C  9.84
11. CN(C)CCc1ccc(O)cc1  9.8
12. CN(C)CCOCCN(C)C  9.8
13. NCCCCC[NH3+]  9.73
14. CC1CCCC/C1=N\CC(=O)[O-] (configuration not stated)  9.64
15. CCN(CC)CCNc1cc(C)nc(N)n1  9.55
16. CCN1CCC[C@@H]1CNC(=O)c1c([O-])cccc1OC  9.54
17. C=C(C)[C@H]1CN[C@H](C(=O)[O-])[C@H]1CC(=O)OC  9.52
18. C[C@@H]([C@H](O)c1ccccc1)N(C)C  9.22
19. [O-]c1ncccn1  9.17
20. CCc1c(-c2ccccc2)nn(C2CCN(C)CC2)c1[O-]  9.15
21. CC(C)(C)N1NC2CCC1C2 (configuration not stated)  9.12
22. CCSCCN(CC)CC  9.03
23. N[C@@H](C(=O)[O-])[C@H](O)C(=O)[O-]  9
24. Cc1cc([O-])n(C2CCN(C)CC2)n1  9
25. COc1cc(CN)ccc1O  8.94
26. COc1ccc(N)cc1C(=O)N[C@@H]1C[C@H]2CC[C@@H](C1)N2Cc1ccccc1  8.86
27. Nc1ccnc(-c2cc(N)ccn2)c1  8.8
28. CC(CN1c2ccccc2Sc2ccccc21)N(C)C (configuration not stated)  8.65
29. CN1C[C@@H](C(=O)[O-])C[C@H]2c3cccc4[nH]cc(c34)C[C@@H]21  8.47
30. NCCC[NH2+]CCCC[NH3+]  8.35
31. NCC(=O)NCC(=O)[O-]  8.31
32. NCC#CC#CCCC(=O)[O-]  8.26
33. C#CC(CC)(CC)N(CC)C(C)C  8.2
34. CCc1ncc[nH]1  8.05
35. Cc1nc(CO)[nH]c1C  7.88
36. [O-]c1ccnc([S-])[nH+]1  7.75
37. Cc1nn(C)c(N(C)C(=O)CN)c1C(=O)c1ccccc1F  7.52
38. [Se-]c1ncnc2nc[nH]c12  7.33
39. COc1cc2c(cc1OC)NCC2  7.3
40. c1ccc(C(CCN2CCOCC2)c2ccccc2)cc1  7.25
41. C=CCN1CCOCC1  7.05
42. C[NH+](C)CCCCNc1c2ccccc2nc2cccc([N+](=O)[O-])c12  6.9
43. C1CCN2CCCCN2C1  6.79
44. Oc1ccc(Cl)cc1CN1CCOCC1  6.78
45. [NH3+]C(Cc1cnc[nH]1)C(=O)NCC(=O)[O-] (configuration not stated)  6.67
46. Nc1ccc2[nH]c(Cc3ccccc3)nc2c1  6.4
47. c1nc(Cc2c[nH]c(Cc3[nH]cc[nH+]3)n2)c[nH]1  6.15
48. Cc1nc2c(n1C)C(=O)c1ncnc([O-])c1C2=O  6.15
49. Cc1ccc2nccc(NCCC[NH+](C)C)c2c1[N+](=O)[O-]  6.15
50. c1cc2[nH]cnc2cn1  6.1
51. Nc1cncnc1N  6.03
52. c1ccc(-c2nc3cnccc3[nH]2)cc1  6
53. COc1ccc(Nc2ccc(N)cc2)cc1  5.9
54. CC(=O)Nc1ccncc1  5.87
55. Cc1cc2c(C)ccnc2c2ncccc12  5.71
56. Nc1ccc(O)c(N)c1  5.7
57. CCOc1ccc2[nH]cnc2c1  5.57
58. CC(CN(C)C)[NH+](C)C (configuration not stated)  5.4
59. CCCCCCCNc1ccccc1  5.09
60. Cc1ccc(N)c(N)c1  5
61. OCc1cccnc1  5
62. c1c[nH]c(Cc2[nH]cc[nH+]2)n1  4.9
63. CCOCCn1c(CN2CCC[NH+](CCCCn3cccn3)CC2)nc2ccccc21  4.9
64. Nc1ccc2ccnnc2c1  4.85
65. c1ccc(-c2ccnc3c2ccc2c(-c4ccccc4)ccnc23)cc1  4.84
66. Nc1ccc(-c2ccc(/[NH+]=C/c3ccccc3O)cc2)cc1  4.75
67. c1ccc(-c2ccoc2)nc1  4.65
68. CN(C)c1ncnc2[nH]ncc12  4.53
69. CSc1cccnc1  4.45
70. O=C([O-])c1nc2cc(Cl)ccc2[nH]1  4.3
71. CCCc1ccc(C)nn1  4.25
72. C=C[C@]1(O)C[NH+]2CC[C@H]1C[C@@H]2[C@@H](O)c1ccnc2ccc(OC)cc12  4.12
73. OCCNc1ccccc1  4.09
74. CSc1cccc(N)c1  4.05
75. CCCCCCCCCCCCCCCC[NH+](CCCCCCCCCCCCCCCC)CCn1ccnc1  4
76. O/N=C/c1cccnc1  3.94
77. CSc1cnc2ccccc2c1  3.88
78. Cc1ccc(N)cc1-c1cc([NH3+])ccc1C  3.8
79. COCCNc1cccc(OC)c1  3.7
80. COc1cc(S(C)=O)ccc1-c1cn2cccnc2n1 (configuration not stated)  3.7
81. CC1=C(CC(C)[NH2+]CC(O)c2ccc(N)cc2)CCC1(C)C (configuration not stated)  3.69
82. COc1cc(S(C)=O)ccc1-c1nc2ccnnc2[nH]1 (configuration not stated)  3.63
83. CCCc1cccnn1  3.59
84. C[NH+](C)c1ccc(/C=C/c2ccncc2)cc1  3.42
85. O/N=C/c1ccccn1  3.4
86. O=[PH]([O-])C([NH2+]Cc1ccccn1)c1ccccc1O (configuration not stated)  3.25
87. Cc1cc(-c2ccccc2)nn2c(C[NH+](C)C)cnc12  3.18
88. Cc1n[nH]c2c(N)cccc12  3.18
89. CS(=O)Cc1ccccn1 (configuration not stated)  3.1
90. CCOC(=O)c1cnc(N)s1  3.04
91. Fc1cccnc1  2.97
92. Nc1cccc(S(N)(=O)=O)c1  2.87
93. CN1Cc2c(ccc3c2OCO3)-c2ccc3cc4c(cc3c21)OCO4  2.6
94. c1ccc2c(c1)nnc1ccccc12  2.2
95. NNC(=O)c1ccc([NH3+])cc1  2.05
96. N#Cc1cncc2ccccc12  2.04
97. Nc1nnn[nH]1  1.81
98. Cc1cnccn1  1.42
99. c1ccc2nc3ccccc3nc2c1  1.31
100. Cn1c(=O)c2[nH]c[nH+]c2n(C)c1=O  0.7
101. Cc1cnoc1C  0
102. N#CC(C#N)=NNc1ccccc1Cl  -0.77
103. NC(=S)C([NH3+])Cc1ccccc1 (configuration not stated)  -8.63
